# Columns and labels:
# [1] = system: 307 kinases; assay: Kinome-wide profiling (SelectScreen Kinase Profiling Service); type: biochemical; details: compounds at 1 μM, ATP at Km,app
# Method: The percent inhibition results in FIG. were generated with biochemical enzymatic kinase assays using the SelectScreen® Kinase Profiling Service (Life Technologies Corporation, Madison, Wis.). Compounds were assayed at 1 μM at an ATP concentration equal to the ATP Km,app for the assay following the detailed procedures described in the SelectScreen® Customer Protocol and Assay Conditions documents located at www.invitrogen.com/kinaseprofiling.
# Compounds that were profiled include, but are not limited to, 3, 4, 9, 13, and 20. […] The exocyclic amine mimics N6 of ATP and plays an important role in a hydrogen bonding interaction with the hinge region of kinases.
# [2] = target: I338T v-Src (Rous sarcoma virus (strain H-19), UniProt P25020, I338T); type: cell-based
# Method: Curr Biol 8(5):257-266. Cells were grown to 60-90% confluence in DMEM supplemented with fetal bovine serum (10%), penicillin ‘G’ (100 units/ml) and streptomycin sulfate (100 μg/ml) (PenStrep, UCSF Cell Culture Facility) prior to treatment with kinase inhibitors dissolved in DMSO (final DMSO concentration, 0.5%). Following 1 hour of incubation with inhibitors at 37° C., cells were harvested in lysis buffer (50 mM Tris (pH 7.4), 300 mM NaCl, 5 mM EDTA, 1% triton, 0.02% NaN3, 1× complete mini protease inhibitor (Roche), 1 mM PMSF, 1×PHOS-stop (Roche), 0.02 μM microcystin, 2 mM sodium orthovanadate), normalized for concentration and analyzed by Western blot for global phosphotyrosine levels (4G10, Millipore, 1:1000). Levels of β-actin (β-actin Antibody, Cell Signaling, 1:1000) and v-Src (Src 32G6 rabbit mAb, Cell Signaling, 1:1000) were ascertained by Western blot.
# I338C (v-Src-ES1, SEQ ID NO:48), I338T (SEQ ID NO:49), I338G (v-Src-AS1, SEQ ID NO:50) and WT v-Src-transformed NIH-3T3 cell lines were generated. Unlike c-Src, v-Src is constitutively active and harbors an isoleucine gatekeeper. The I338T v-Src variant was generated for consistency with the in vitro c-Src studies. For each cell line, global levels of phosphotyrosine were analyzed (FIG. 7). […]
# [3] = target: WT c-Src (Gallus gallus (Chicken), UniProt P00523); assay: Gel filtration and kinetic assay, WT c-Src; type: biochemical; details: 23 μM inhibitor, 25 minutes, then PD10 desalting
# Method: Inhibitors (final concentration 23 μM) were incubated with c-Src variants (final concentration 11.5 μM) in kinase reaction buffer (50 mM Tris pH 8, 100 mM NaCl, 1 mM DTT, 5% glycerol, 5% DMSO) for 25 minutes at room temperature. The solutions (2.6 mL total) were then passed over PD10 desalting columns (GE Healthcare) using the kinase reaction buffer for elution. Src concentrations were calculated using the extinction coefficient for c-Src (51.140 mM^−1cm^−1) {Seeliger, 2005 #100}. Kinase assays were performed as described in the experimental section at a final enzyme concentration of 10 nM.
# [4] = target: c-Src-ES2 (T338C/V323A) (Gallus gallus (Chicken), UniProt P00523, T338C/V323A); assay: In vitro kinase assay, c-Src-ES2; type: biochemical
# Method: In vitro kinase assays for c-Src variants were performed in 50 mM Tris (pH 8.0), 10 mM MgCl2 and 1 mg/mL BSA. When obtaining kinetic parameters (kcat, Km) kinase and peptide substrate (IYGEFKKK) (SEQ ID NO:51) concentrations were 2 nM and 500 μM, respectively, while ATP concentrations ranged from 2000-0.655 μM. Addition of nonradioactive ATP supplemented with ^32P ATP (3,000 Ci/mmol, NEN) was used to initiate kinase reactions. Time points were selected such that product formation never exceeded 10%. Reactions were quenched by spotting 3 μL quantities onto phosphocellulose sheets (P81, Whatman). Afterwards, the sheets were washed 3×5 minutes in 0.5% phosphoric acid and dried. Radioactivity was measured by phosphorimaging and recorded on a Typhoon fluorescence imager (Molecular Dynamics). Data were plotted as rate (min^−1) versus ATP concentration and fitted to the Michaelis-Menten equation, v=[(kcat)[S]]/(Km+[S]), using Kaleidagraph software (Synergy) to extract kinetic parameters. When obtaining IC50 values for the inhibitors, 2% (v/v) DMSO was included in kinase reactions. In these cases ATP, peptide, and enzyme concentrations were 15 nM, 100 μM and 5 nM, respectively, while inhibitor concentrations ranged from 10,000-0.610 nM. In all cases, a ten-minute preincubation step between the kinase and the inhibitor preceded addition of ATP and a fifteen-minute reaction. The data was fitted to a sigmoidal dose-response curve using Prism 4.0c (GraphPad Software) to obtain IC50 values.
# [5] = target: T338C c-Src (Gallus gallus (Chicken), UniProt P00523, T338C); assay: Full protein mass spectrometry of covalent labeling; type: binding; details: two equivalents of inhibitor
# Method: Protein labeling conditions: Kinase labeling reactions were performed by incubating 30 μL quantities of c-Src variants (in 50 mM Tris pH 8, 100 mM NaCl, 1 mM DTT, 5% glycerol) with two equivalents of inhibitor in DMSO (final DMSO concentration=2.4%). The covalent labeling reaction was quenched by removing 4 μL and adding it to 31 μL of 0.1% formic acid. The sample was then analyzed by ES1-oa-TOF mass spectrometry.
smiles,measurement,setting,value
"CC(C)n1nc(Cc2cccc(C(=O)CF)c2)c2c(N)ncnc21 [Compound 13, 1-(3-((4-amino-1-isopropyl-1H-pyrazolo[3,4-d]pyrimidin-3-yl)methyl)phenyl)-2-fluoroethanone]",off-target profile in kinome-wide screen,[1],clean profile
same,inhibition of I338T v-Src in cells (global phosphotyrosine levels),[2],neither 9 nor 13 inhibited I338T v-Src
same,"inhibitory activity after gel filtration, WT c-Src",[3],lost
same,IC50,"[4]; ES2 = T338C/V323A, read-out: c-Src variant IC50 (nM) ES2",67 nM
same,change of inhibitor potency upon second-site Val323 mutations,[4]; c-Src-ES2 and c-Src-ES3 relative to c-Src-ES1,Enhanced inhibitor potency
same,fold increase in potency with V323A mutation,[4]; c-Src-ES2 relative to c-Src-ES1,5 fold
same,covalent labeling / adduct formation by full protein mass spectrometry,[5],not observed
